Data on two compounds can be found in patent US20240336573A1, “COMPOUND FOR THE TREATMENT AND PROPHYLAXIS OF INFECTIOUS DISEASES” (Eberhard Karls Universität Tübingen Medizinische Fakultät, priority 2021, published 2024).

Series [1] can be described thus: Solubility estimate based on turbidity (OD600 nm). The series is classed as physicochemical. An excerpt: The evaluation of these shelf derivatives included an estimate of their solubility based on the turbidity (OD600 nm) as well as their activity in the primary assay (2.1), their KD (2.2), their MIC reduction of Vancomycin (2.5) and their cytotoxicity (2.6) (Table 4).

The target of series [2] is T1, luciferase (Photinus pyralis, UniProt P08659). Briefly: Primary assay buffer control: interference with Luciferase per se. The series is classed as biochemical, firefly. On the set-up: key: no influence on Luc activity = 0; enhances Luc activity = +; reduces Luc activity = −. The protocol:
In short, the Luciferase based SurA activity assay was performed in SurA Activity Assay Buffer (40 mM HEPES pH 7.4, 20 mM MgSO4, 0.5 g/I BSA). SurA aliquots were thawn at RT, activated by mild heat treatment and cooled down to RT for 10 min. SurA concentration was adjusted to 1.6 μM in Activity Assay Buffer (protein solution). Solution A containing 10 mM ATP as well as 0.3 mM Luciferin (Promega Beetle Luciferin, Potassium Salt) in water was prepared. Luciferase working solution was prepared by diluting 1 ml Luciferase working stock (100 nM) with 9 ml assay buffer. 33 μl of the protein solution were added to every 2nd row of a well of a 384-well PS, white, flat bottom plate. […] Subsequently, 2 μl of compound in DMSO were added in quadruplicates (4 wells each of protein solution and buffer controls). These compound solutions could contain either various compounds or different dilutions of the same compound allowing screening inhibitor activity in a dose dependent manner. After compound addition, plates were incubated 15 min at RT. After this incubation, 5 μl of Luciferase working solution were added to each well. […] Subsequently, the assay plate was cooled for 5 min at 4° C. followed by 10 min incubation at RT prior to luminescence measurement. Luminescence was measured in a TECAN infinite M200 pro plate reader for each well individually after injection of 10 μl Solution A.

Series [3] concerns the target T1, luciferase. As to the kind of experiment: Luciferase interference deselection assay (D1). Format: biochemical. The conditions noted are these: DRC format. From the text: Starting with approximately 400,000 compounds, a set of 3991 compounds was left for testing in dose response experiments. Due to acquisition of a lower assay window for part of the data obtained during the screening campaign of ELFSC17_02, the data-set was split into P1 and P2 for analysis in ActivityBase. For P1 the initially set criterion of Z-score ≥4 (˜4%) was used for selection of actives and for P2 this selection criterion was adjusted to effect ≥40% (Z-score ˜15). […] In order to reduce this total number of 4205 compounds to a maximum of 4000 compounds allowed to be ordered in serial dilutions for dose response experiments (i.e. 1% of 400,000), the criterion for P1 was changed to Z-score >4.3 gaining 3344 compounds. […] The confirmed actives of ELF program ELFSC17-02 were tested as serial dilutions in the primary assay and deselection assay to generate dose response curves (DRCs). The serial dilutions consisted of 7 equidistant concentration steps (20 μM to 27.4 nM) and were tested in the primary and in the deselection assay in duplo (n=2) in 1536-well format. […] For the luciferase interference deselection assay in DRC-format, luciferase was left out in the Max effect wells, mimicking a 100% effect situation and resulting in a decreased signal. Compounds showing a signal decrease larger than 5 times the standard deviation (Z-score >5) were identified as luciferase […]. […] The ActivityBase application (IDBS) was used to analyze the data and to calculate quality parameters like Z-prime and Signal to Background ratio (S/B). For all compounds the % effect was calculated for all seven concentrations. ActivityBase was also used to calculate the pEC50 and Hill Slope. […] For compounds where no curve was fitted but reached >50% effect at 20 μM the Fit_Max was locked at 100% effect. For compounds where no curve was fitted but reached 100% effect at 20 μM and descended to <50% at 27 nM the Fit_Min was locked at 0%. […] Based on the results of C2 and D1 a list of 383 compounds was created as the preliminary hits, which were evaluated with MST (01). […]

The subject of series [4] is E. coli ATCC 25922. As to the kind of experiment: Sensitizer MIC assay (vancomycin). Format: cell-based. The settings on record: compound concentration of 100 μM. The protocol: (§1) To test for the sensitizer properties of the compounds, the inventors then performed a sensitizer MIC assay. To this end, E. coli BW25113, E. coli JW2496-3, and E. coli ATCC 25922 inocula were prepared as described above. Each well of a 96-well plate was prefilled with a fixed compound concentration of 100 μM and a dilution series of Vancomycin ranging from […]. A sensitizing effect was defined as reduction of the MIC value of Vancomycin of the respective test strain.

Series [5] deals with E. coli. As to the kind of experiment: Vancomycin MIC in presence of compound (strain not stated). The series is classed as cell-based. The settings on record: in presence of 100 μM compound. The protocol: as §1
Series [6] has as its system E. coli BW25113, E. coli JW2496-3, E. coli ATCC 25922. Briefly: Minimal inhibitory concentration assay (bactericidal/bacteriostatic assessment). Format: cell-based. The settings on record: dilution series 100-1.7 μM. An excerpt:
The intended effect of a SurA inhibitor should be the induction of a disturbance of the outer membrane composition resulting in an increased susceptibility to antibiotic treatment. Of note, Vancomycin is typically not used to treat infections with Gram-negative bacteria, because it is excluded by the OM and not efficient at concentrations that could be achieved in patients. However, at appropriate dosing in vitro it can be used to detect outer membrane defects. For determining a potential sensitizing effect of Vancomycin treatment, the inventors first tested whether the compounds at hand were bactericidal per se. Therefore, the inventors performed a minimal inhibitory concentration (MIC) assay. To this end, 5 ml overnight cultures of E. coli BW25113 (Keio-Collection reference strain), E. coli JW2496-3 (Keio-Collection single gene knockout for bamB, which suffers from decreased outer membrane integrity) and E. coli ATCC 25922 (a reference strain recommended for antibiotic susceptibility testing) were grown in Mueller Hinton Broth, Cation adjusted (MHB-II). The next day, the OD was adjusted to obtain 1*10^8 CFU/ml using fresh MHB-II. Next, this bacterial solution was diluted 1:100 into 20 ml fresh MHB-II. 50 μl of this bacteria solution were then transferred into each well of a 96-well plate prefilled with 50 μl MHB-II supplemented with the desired compounds. The test plates for the bactericidal assessment contained dilution series of the compounds from 100-1.7 μM. Plates were sealed with a gas permeable membrane and incubated o/n at 37° C. in a humid chamber without shaking. After o/n incubation, bacterial growth was quantified by measuring the optical density at 600 nm wavelength in a multiplate reader. Compounds showing no growth inhibition at 100 μM were considered non-bactericidal. Of note, the bactericidal effect of Vancomycin was assessed similarly for each test strain using Vancomycin concentrations ranging from […]. This was done to identify a Vancomycin concentration at which the strains just managed to survive.

T1 sequence (P08659 whole entry): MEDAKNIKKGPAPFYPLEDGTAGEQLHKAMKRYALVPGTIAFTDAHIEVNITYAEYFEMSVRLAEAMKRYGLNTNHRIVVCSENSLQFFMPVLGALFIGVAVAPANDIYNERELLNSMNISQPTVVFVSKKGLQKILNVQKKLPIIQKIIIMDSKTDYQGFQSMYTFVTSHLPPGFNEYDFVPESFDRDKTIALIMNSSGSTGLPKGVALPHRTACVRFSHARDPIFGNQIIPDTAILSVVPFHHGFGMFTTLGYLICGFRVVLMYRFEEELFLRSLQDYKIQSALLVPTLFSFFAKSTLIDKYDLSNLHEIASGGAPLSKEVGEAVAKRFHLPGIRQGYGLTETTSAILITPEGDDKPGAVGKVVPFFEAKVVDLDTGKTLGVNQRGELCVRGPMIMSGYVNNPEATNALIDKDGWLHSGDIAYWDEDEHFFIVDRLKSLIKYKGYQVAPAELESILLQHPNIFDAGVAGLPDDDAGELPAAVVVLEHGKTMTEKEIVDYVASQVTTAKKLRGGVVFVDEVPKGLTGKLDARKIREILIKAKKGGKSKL

With `CN(C)c1ccc(-c2nc3cc(NC(=O)Cn4cc5ccccc5n4)ccc3[nH]2)cc1` [QHL-24], the “Solubility (in words)” value in series [1] is “poor solubility”. For the same compound, the “primary assay Luciferase” value in series [2] is on record as “−”. In series [3], the “Deselection (D1) pIC50” value stood at 4.42. Besides, in series [4], the “MIC (reduction of vancomycin MIC)” value is “yes (reduction of the MIC for vancomycin of the E. coli ATCC 25922 strain below 256 mg/l at a compound concentration of 100 μM (yes/no))”. The MIC (Vanco, mg/ml) in series [5] stood at 0.256 mg/mL.
On to `NC(=O)c1nc(Cc2ccc(OCC(=O)O)cc2)[nH]c1NC(=O)c1ccc(-c2ccccc2)cc1` [Compound 2a, 2-(4-((5-([1,1′-biphenyl]-4-carboxamido)-4-carbamoyl-1H-imidazol-2-yl)methyl)phenoxy)acetic acid], for which the “Bacteriostatic MIC Assay Result” value in series [6] is reported as “non-bacteriostatic”. Moreover, in series [2], the “primary assay Luciferase” value is on record as “−”. Besides, the “Deselection (D1) pIC50” value in series [3] (listed as QHL-10) came out at 5.16. In addition, the IC50 in series [3] (read-out: Deselection (D1) pIC50 (converted)) was 6.92 µM. Moreover, in series [4], the “MIC (reduction of vancomycin MIC)” value is “yes (reduction of the MIC for vancomycin of the E. coli ATCC 25922 strain below 256 mg/l at a compound concentration of 100 μM (yes/no))”.
